Experimental data: PMC10590383, “Repurposing conformational changes in ANL superfamily enzymes to rapidly generate biosensors for organic and amino acids” (Nature Communications, 2023)

Tests used:
Assay in all cases: Fluorescence dose-response of purified binding-pocket-engineered sensors (0.75 uM) in 100 mM Tris-HCl pH 7.5, room temperature, 1 mM ATP, 2.5 mM MgCl2, excitation 460 or 480 nm, emission 510 nm; logistic five-parameter fit.
Type in all cases: biochemical
Settings in all cases: n = 3
GECFINDER-Leu4 = target: T1, GECFINDER-Leu4 (Aneurinibacillus migulanus, UniProt P0C061, A301G/I277L/S447N/T278L)
T1 construct: gene grsA
Protocol: (§1) Fig. 4 Engineering ligand specificity of GrsA-PheA for generating […]s. a The selectivity-conferring code of Phe and Leu A domains. b–f Dose–response curve of purified […]s with increasing concentrations of ligands in 100 mM Tris-HCl buffer (pH=7.5). All data shown are means ± S.D. (n = 3 biologically independent samples). g A series of […] reactions was tested to show the […]’s specificity with 20 proteinogenic amino acids. The values on the heatmap represent the ΔF/F0 value normalized to each […]’s maximal ΔF/F0 value ((ΔF/F0)/maximal ΔF/F0). The concentrations of 20 amino acids were 100 μM. The color indicates the average value of three independent biological replicates after 15 min. All data shown are means ± S.D. (n = 3 biologically independent samples). Source data are provided as a Source data file.
(§2) The study conducted dose–response curve, substrate specificity, and fluorescent spectrum analyses in 100-mM Tris buffer (pH = 7.5), while pH stability experiments were performed in 100-mM Tris buffer at three different pH values (6.5, 7.5, and 8.5) at room temperature. […] protein at a concentration of 0.75 μM, various small molecule concentrations, 1 mM ATP, and 2.5 mM MgCl2 were used in the experiments. Fluorescent signals were detected using a Microplate Reader (Synergy H4, Bio Tek) at an excitation/emission wavelength of 460 nm/510 nm or 480 nm/510 nm. The dose-response curve was determined immediately after the addition of the analyte. The total duration of the measurement was 15 min, with readings taken at one-minute intervals. The dose-response curve was plotted using the fluorescence values obtained after achieving stability in the fluorescence signal. The dose-response curves were fitted using the logistic model LOGISTIC5 available in Origin 2021, which could provide a more adequate fit to asymmetric dose-response data[62],[63]. Excitation spectra were scanned from 300 to 540 nm with a step size of 5 nm, and the emission wavelength was set to 560 nm. Emission spectra were scanned from 470 to 700 nm with a step size of 5 nm, and the excitation wavelength was set to 450 nm. The thermal stability of […] was analyzed using the UNcle multifunctional protein stability analysis system. Measurements were performed in 20 mM MOPS buffer with 2 mM DTT at a sample concentration of 1 mg/mL. Absolute fluorescence quantum yields were measured using an absolute photoluminescence quantum yield spectrometer (FS5, Edinburgh).

GECFINDER-Leu3 = target: T2, GECFINDER-Leu3 (Aneurinibacillus migulanus, UniProt P0C061, A301G/S447N/T278L)
T2 construct: gene grsA
Protocol: as §1, §2

GECFINDER-Leu2 = target: T3, GECFINDER-Leu2 (Aneurinibacillus migulanus, UniProt P0C061, A301G/I277L/T278L)
T3 construct: gene grsA
Protocol: as §1, §2

GECFINDER-Leu1 = target: T4, GECFINDER-Leu1 (Aneurinibacillus migulanus, UniProt P0C061, A301G/T278M)
T4 construct: gene grsA; GrsA-PheA-PCP
Protocol: as §1, §2

T3 sequence (P0C061 1-617 I277L/T278L/A301G): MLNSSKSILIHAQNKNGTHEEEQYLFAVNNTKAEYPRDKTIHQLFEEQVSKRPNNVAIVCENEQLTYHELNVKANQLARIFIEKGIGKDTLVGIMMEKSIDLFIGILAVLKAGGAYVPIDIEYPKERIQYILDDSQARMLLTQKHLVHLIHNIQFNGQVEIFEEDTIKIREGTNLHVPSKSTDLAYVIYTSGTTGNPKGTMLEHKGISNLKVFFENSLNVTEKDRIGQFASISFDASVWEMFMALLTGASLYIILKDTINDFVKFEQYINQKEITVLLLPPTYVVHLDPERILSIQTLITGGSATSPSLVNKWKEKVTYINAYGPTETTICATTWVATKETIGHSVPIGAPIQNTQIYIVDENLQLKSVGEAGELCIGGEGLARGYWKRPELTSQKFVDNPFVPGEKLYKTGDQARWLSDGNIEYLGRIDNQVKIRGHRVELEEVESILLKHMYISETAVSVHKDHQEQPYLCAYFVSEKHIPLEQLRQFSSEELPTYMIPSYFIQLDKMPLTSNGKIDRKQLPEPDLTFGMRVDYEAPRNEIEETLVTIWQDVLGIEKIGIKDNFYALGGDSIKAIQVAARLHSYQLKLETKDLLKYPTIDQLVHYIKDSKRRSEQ
T4 sequence (P0C061 1-617 T278M/A301G): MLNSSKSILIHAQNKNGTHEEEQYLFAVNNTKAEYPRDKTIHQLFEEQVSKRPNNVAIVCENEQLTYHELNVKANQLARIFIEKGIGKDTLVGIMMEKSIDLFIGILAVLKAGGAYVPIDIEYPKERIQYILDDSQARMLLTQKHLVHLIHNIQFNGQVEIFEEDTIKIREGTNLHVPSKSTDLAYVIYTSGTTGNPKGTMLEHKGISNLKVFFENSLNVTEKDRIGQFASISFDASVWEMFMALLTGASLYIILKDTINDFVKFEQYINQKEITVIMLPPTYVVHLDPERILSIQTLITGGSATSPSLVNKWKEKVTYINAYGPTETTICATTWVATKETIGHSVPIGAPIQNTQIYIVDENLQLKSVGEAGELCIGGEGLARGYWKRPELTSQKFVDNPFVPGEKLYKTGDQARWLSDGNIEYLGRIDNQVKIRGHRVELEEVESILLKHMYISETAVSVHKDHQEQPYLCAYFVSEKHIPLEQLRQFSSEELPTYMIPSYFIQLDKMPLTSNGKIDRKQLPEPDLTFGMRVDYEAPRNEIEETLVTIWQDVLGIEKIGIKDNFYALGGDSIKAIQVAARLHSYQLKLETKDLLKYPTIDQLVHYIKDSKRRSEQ
T2 sequence (P0C061 1-617 T278L/A301G/S447N): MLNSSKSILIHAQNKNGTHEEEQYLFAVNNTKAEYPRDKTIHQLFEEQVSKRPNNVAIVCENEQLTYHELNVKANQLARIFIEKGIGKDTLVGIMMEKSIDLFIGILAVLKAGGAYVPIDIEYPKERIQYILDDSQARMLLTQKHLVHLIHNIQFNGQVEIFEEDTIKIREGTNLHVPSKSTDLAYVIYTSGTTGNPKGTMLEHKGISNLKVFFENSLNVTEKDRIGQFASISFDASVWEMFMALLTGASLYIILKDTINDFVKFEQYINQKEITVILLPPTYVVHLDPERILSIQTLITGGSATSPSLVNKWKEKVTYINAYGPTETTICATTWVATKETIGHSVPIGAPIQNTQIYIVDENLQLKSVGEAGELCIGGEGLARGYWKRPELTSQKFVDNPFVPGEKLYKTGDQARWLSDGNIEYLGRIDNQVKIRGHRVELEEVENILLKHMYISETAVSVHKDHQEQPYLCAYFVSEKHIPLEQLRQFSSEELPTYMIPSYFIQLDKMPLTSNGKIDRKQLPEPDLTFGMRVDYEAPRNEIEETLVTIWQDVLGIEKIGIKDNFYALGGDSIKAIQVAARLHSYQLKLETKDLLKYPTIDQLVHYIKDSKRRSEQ
T1 sequence (P0C061 1-617 I277L/T278L/A301G/S447N): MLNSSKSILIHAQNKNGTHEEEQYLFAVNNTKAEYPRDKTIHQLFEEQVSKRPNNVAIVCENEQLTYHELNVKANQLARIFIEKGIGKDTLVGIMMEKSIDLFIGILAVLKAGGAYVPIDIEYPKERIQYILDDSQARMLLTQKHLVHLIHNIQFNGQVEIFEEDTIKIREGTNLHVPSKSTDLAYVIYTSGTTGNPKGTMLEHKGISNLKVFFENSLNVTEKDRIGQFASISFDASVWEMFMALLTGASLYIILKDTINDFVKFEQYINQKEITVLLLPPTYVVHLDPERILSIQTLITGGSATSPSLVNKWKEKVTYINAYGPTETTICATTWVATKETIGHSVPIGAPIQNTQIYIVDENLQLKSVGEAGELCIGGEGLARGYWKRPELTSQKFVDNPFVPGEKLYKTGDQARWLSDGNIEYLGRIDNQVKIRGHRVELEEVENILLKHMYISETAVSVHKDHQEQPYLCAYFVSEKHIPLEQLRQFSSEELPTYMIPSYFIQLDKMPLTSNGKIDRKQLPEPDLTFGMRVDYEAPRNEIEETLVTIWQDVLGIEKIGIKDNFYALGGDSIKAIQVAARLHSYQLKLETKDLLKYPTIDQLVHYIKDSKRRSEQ

CC(C)C[C@H](N)C(=O)O [Leu, leucine]
EC50 (GECFINDER-Leu4): 106 ± 24.5 µM
EC50 (GECFINDER-Leu3): 200 ± 7.76 µM
EC50 (GECFINDER-Leu2): 207 ± 37.2 µM
EC50 (GECFINDER-Leu1): 58.4 ± 24.8 µM
